Laboratory results published in US20250020635A1, “ASSAY METHODS AND USES THEREOF FOR SCREENING ALZHEIMER'S DISEASE TREATMENT COMPOUNDS” (priority 2023, published 2025).
Entries after “also recorded” stand apart in the source; their conditions may differ. Where two headings read alike, the source gives them in different places.

Experiments:
BV2 cells = test: Microglial phagocytosis/cell health high-content assay, BV2 cells; assay type: cell-based; conditions: for Ave. % Cell Count @ 60 uM BV2 cells / Ave. % Phagocytosis @ 60 uM BV2 cells: 48 hrs, compared to control; for phagocytosis increase against cell count decline: HMC3 and BV2 cells (Table 6, FIGS. 21, 22); for EC50 / IC50: Mus musculus, BV-2; for IC50: read-out: cell count decrease IC50
Experimental: (§1) The assay introduced here is a simplified cellular imaging assay without any fixation and washing steps, while producing multiparameter measurements with high capacity using a 384-well plate format. The assay procedures include plating cells on day 1, incubating cell plates overnight before treating cells on day 2, adding pHrodo™-myelin/membrane debris to cell plates on day 3, and 20 hr later, staining cell nuclei with Hoechst-33342 for 30 min before performing high-content imaging on day 4. Three selected parameters are measured from cells: 1) mean total fluorescence intensity per cell of pHrodo™-myelin/membrane debris in phagocytosis vesicles to quantify phagocytosis; 2) cell counts per well to quantify treatment effects on proliferation and cell death; and 3) average nuclear intensity to quantify treatment-induced nuclear changes such as in apoptosis. The assay has been used on HMC3 cells (an immortalized human microglial cell line), BV2 cells (an immortalized mouse microglial cell line), and primary microglia isolated from mouse brains. For initial assay attempts, we recommend using HMC3 cells available from the ATCC.
(§2) All collected raw data are normalized to the untreated control with following formula: % of control=100×(X−Min)/(Max−Min). Factors in the formula are: X is raw data from a treated well, Max is an average measurement from pHrodo™-myelin seeded but untreated wells, and Min is an average measurement from no pHrodo™-myelin untreated wells. Normalized data are used for curve fitting that is done with the variable slope (four parameters) using the Prism software.
(§3) To ensure that the measurements reflect the steady state of compound treatment effects and cell health, the assay was set with a total compound treatment time of 48 hr, including pHrodo™-myelin/membrane debris seeding performed 20-24 hr after compound addition. […] Among many available quantitative measurements from the image analysis, we selected three parameters for the assay:
(§4) 1) The mean total intensity of phagocytosis vesicles/cell—to measure phagocytosis. There are multiple parameters generated from the image analysis, including phagocytosis vesicle area, number, and various fluorescence intensity measurements. Comparing these parameters, the total fluorescence intensity of vesicles/cell is the most sensitive one and was chosen for quantifying phagocytosis.
(§5) 2) The total cell counts—to measure overall cell viability, which is affected by proliferation and cell death. We chose to take 4 images/well (with the 10× objective lens) that cover about 50% of the total area of a well in a 384-well plate to represent cell count of the well.
(§6) 3) The average nuclear intensity—to measure drug-induced apoptosis, with high signal indicating nuclear condescension (a sign of early apoptosis) and low signal indicating DNA degradation (a sign of later apoptosis, when activated caspases digest DNA).
(§7) A phenotypic high-content imaging assay with simultaneous measurements of phagocytosis, cell number, and nuclear intensity was used to assess both cellular pharmacology and cell health. Model cell lines BV2 (immortalized mouse microglia, a gift from Dr. Michelle Block's laboratory at IUSM) and HMC3 (immortalized human microglia, obtained from ATCC, CRL-3304) were used to provide adequate throughput. Cells were cultured in DMEM GlutaMax media (ThermoFisher) containing 10% FBS and Pen-Strep in a 37° C. 5% CO2 incubator, plated in Corning Falcon 384 well Optilux Black and clear bottom plates: 400 cells/45 μl/well (BV2 cells), 600 cells/45 μl/well (HMC3 cells) and 2000 cell/45 μl/well (primary cells), and treated with 10× serially diluted compounds (60 μM-3 nM) for 48 hrs at 37° C. […]

PLCγ2-HiBit = target: T1, PLCγ2-HiBit (Homo sapiens, UniProt P16885); test: Cellular thermal shift assay (SplitLuc CETSA), PLCγ2-HiBit in HMC3 cells; assay type: cell-based; conditions: for PLCγ2-HiBit %, percent luminescence at highest dose compared to control (DMSO): 100 μM
T1 construct: expressed in transfected cells; host or cells: HMC3 cells
T1 sequence (P16885 1-1265): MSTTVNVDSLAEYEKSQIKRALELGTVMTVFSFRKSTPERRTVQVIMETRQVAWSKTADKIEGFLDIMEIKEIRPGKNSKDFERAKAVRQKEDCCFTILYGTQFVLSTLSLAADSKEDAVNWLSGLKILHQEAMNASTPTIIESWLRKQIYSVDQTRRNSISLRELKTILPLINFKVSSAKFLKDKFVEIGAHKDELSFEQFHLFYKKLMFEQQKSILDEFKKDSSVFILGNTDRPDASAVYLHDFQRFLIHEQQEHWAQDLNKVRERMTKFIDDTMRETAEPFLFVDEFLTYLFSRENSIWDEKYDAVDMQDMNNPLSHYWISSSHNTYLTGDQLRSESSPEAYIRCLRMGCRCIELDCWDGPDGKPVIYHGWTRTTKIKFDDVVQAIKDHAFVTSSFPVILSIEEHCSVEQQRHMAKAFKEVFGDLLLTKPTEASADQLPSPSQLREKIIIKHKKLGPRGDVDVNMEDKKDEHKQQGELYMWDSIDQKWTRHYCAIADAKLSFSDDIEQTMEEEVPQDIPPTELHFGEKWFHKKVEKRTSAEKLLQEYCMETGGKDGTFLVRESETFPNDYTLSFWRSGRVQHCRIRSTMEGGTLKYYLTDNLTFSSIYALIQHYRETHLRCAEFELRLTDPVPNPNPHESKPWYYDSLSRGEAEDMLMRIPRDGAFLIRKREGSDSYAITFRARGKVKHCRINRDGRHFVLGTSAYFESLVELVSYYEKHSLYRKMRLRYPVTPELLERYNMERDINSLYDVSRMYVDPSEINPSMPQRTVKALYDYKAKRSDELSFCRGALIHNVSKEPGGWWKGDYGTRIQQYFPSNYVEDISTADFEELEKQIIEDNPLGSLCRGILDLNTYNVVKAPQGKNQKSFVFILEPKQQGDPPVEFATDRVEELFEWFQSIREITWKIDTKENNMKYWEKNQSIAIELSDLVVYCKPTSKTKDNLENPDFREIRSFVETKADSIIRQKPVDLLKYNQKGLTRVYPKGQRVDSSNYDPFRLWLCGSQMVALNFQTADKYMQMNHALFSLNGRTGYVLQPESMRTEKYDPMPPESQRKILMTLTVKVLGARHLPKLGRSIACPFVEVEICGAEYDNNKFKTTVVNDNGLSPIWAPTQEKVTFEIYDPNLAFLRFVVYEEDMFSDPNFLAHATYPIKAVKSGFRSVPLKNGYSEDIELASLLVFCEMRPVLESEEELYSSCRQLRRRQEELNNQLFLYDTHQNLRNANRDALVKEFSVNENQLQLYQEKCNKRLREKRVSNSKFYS
Excerpt: These compounds have been evaluated using a wide variety of assay classes namely target engagement utilizing cellular thermal shift assay (CETSA),^34 affinity selection mass spectrometry (ASMS),^35 biochemical activity employing the fluorogenic probe XY-69,^36 and cellular activity testing for phagocytosis. Cellular Thermal Shift Assays (CETSA) assess cellular target engagement by quantifying changes in protein thermal stability upon ligand binding to endogenous proteins in intact cells.^34 For SAR studies, a split Nano Luciferase (SplitLuc CETSA) version of the assay was utilized to provide sufficient throughput.^37,38 HMC3 cells were stably transfected with PLCγ2-HiBit to enable protein expression in a physiologically relevant cellular context. The thermal stability of this HiBit-labeled protein in intact cells was measured in the following two formats. In the initial screen, using 96-well plates, cells were treated with FBS analogs at a single concentration (100 μM) at 37° C. for 60 min and then exposed to a 3-minute isothermal heating step at 45.9° C. (experimentally determined Tm of PLCγ2-HiBit). Luminescence detection was then conducted with the Nano-Glo HiBit Lytic detection kit (Promega, Cat. N3040).^38 Compound treatment was performed in triplicate, and raw signals were normalized to the mean of the controls (in the same plate) as % of control. When the difference in compound-treated cells >control mean+3SD, the compound was considered positive and selected for further testing with dose-response CETSA. In the dose response CETSA, cells were treated with decreasing concentrations from 100 μM with 1:3 serial dilutions to generate an 8-point curve. An AC50 was calculated with the % of control data using a four-parameter logistic curve regression model, and the percent luminescence remaining at the highest concentration is also reported for the compounds when the difference from the DMSO control is greater than 3× the standard deviation (SD). Otherwise, an AC50 was not calculated.

HMC3 cells = test: Microglial phagocytosis/cell health high-content assay, HMC3 cells; assay type: cell-based; conditions: for Ave. % Cell Count @ 60 uM HMC3 cells / Ave. % Phagocytosis @ 60 uM HMC3 cells: 48 hrs, compared to control; for IC50: read-out: inhibition of phagocytosis IC50; for EC50: read-out: stimulation of phagocytosis EC50
Experimental: as §1, §2, §3, §4, §5, §6, §7

HiBit only = test: Cellular thermal shift assay (CETSA), HiBit only control; assay type: cell-based, human; conditions: for HiBit only %, percent luminescence at highest dose with HiBit only compared to control (DMSO): 100 μM; for HiBit only % @100 μM: Table 1
[1] = Table 1, CETSA dose response, read-out: AC50
[2] = Table 5, 8-point dose response from 100 μM, HMC3 cells, 45.9° C., read-out: AC50, concentration that induced a half-maximum loss of luminesce compared to control
[3] = Homo sapiens, HMC3, 48 h, HMC3 cells, 48 hours treatment

| Compound | Ave. % Cell Count @ 60 uM BV2 cells (BV2 cells) [%] | Ave. % Phagocytosis @ 60 uM BV2 cells (BV2 cells) [%] | phagocytosis increase against cell count decline (BV2 cells) | PLCγ2-HiBit %, percent luminescence at highest dose compared to control (DMSO) (PLCγ2-HiBit) [%] | PLCy2-HiBit % @100 (PLCγ2-HiBit; Table 1) [%] | AC50 (PLCγ2-HiBit; [1]) [µM] | AC50 (PLCγ2-HiBit; [2]) [µM] | Ave. % Cell Count @ 60 uM HMC3 cells (HMC3 cells) [%] | Ave. % Phagocytosis @ 60 uM HMC3 cells (HMC3 cells) [%] | HiBit only %, percent luminescence at highest dose with HiBit only compared to control (DMSO) (HiBit only) [%] | HiBit only % @100 μM (HiBit only) [%] | IC50 (BV2 cells; BV2 cells, 48 hours treatment) [µM] | other results |
| --- | --- | --- | --- | --- | --- | --- | --- | --- | --- | --- | --- | --- | --- |
| Cc1cccc(NS(=O)(=O)c2c(C)cc(C)cc2C)c1 [Compound 5] | 45 | 165 | the increase was paired with a sharp cell count decline | 54 | 54 | > 100 | > 100 | 78 | 111 | 95 | 96 | – | – |
| Lipopolysaccharides [LPS, reference compound] | – | – | – | – | – | – | – | – | – | – | – | – | changes in nuclear intensity (BV2 cells; BV2 cells, 48 hr): no nuclear intensity changes up to 10 μg/ml LPS; also recorded: no changes in nuclear intensity; inhibition of cell count IC50 (BV2 cells; BV2 cells, 48 hr): 0.122 µg/mL; stimulation of phagocytosis EC50 (BV2 cells; BV2 cells, 48 hr): 0.255 µg/mL; response (phagocytosis, cell count, nuclear intensity) (HMC3 cells; HMC3 cells, 48 hr): did not respond to LPS treatment |
| O=S(=O)(Nc1cccc(C(F)(F)F)c1)c1ccc(Cl)cc1Cl [Compound 9] | 9 | 581 | the increase was paired with a sharp cell count decline | 32 | 32 | 71 | 71 | 16 | 281 | 38 | 38 | – | – |
| Cc1cc(Br)ccc1S(=O)(=O)Nc1cccc(C(F)(F)F)c1 [Compound 10] | 1 | 434 | the increase was paired with a sharp cell count decline | 17 | 17 | 57 | 57 | 11 | 93 | 40 | 40 | – | – |
| CC[C@H](Nc1ncnc2[nH]cnc12)c1nc2cccc(F)c2c(=O)n1-c1ccccc1 [Idelalisib, reference compound] | – | – | – | – | – | – | – | – | – | – | – | 22 | effect on phagocytosis (BV2 cells; BV2 cells, 48 hours treatment): did not inhibit phagocytosis in BV2 cells, but increased phagocytosis in parallel with decreasing cell counts and increasing nuclear intensity; EC50 (BV2 cells; BV2 cells, 48 hours treatment, 60 μM the maximal dose, read-out: stimulation of phagocytosis EC50): > 60 µM; EC50 (BV2 cells; BV2 cells, 48 hours treatment, read-out: nuclear intensity increase EC50): 4.14 µM; IC50 (HMC3 cells; HMC3 cells, 48 hours treatment): 0.526 µM; IC50 (HMC3 cells; [3]): ~0.5 µM |
| CN1CCN(CCOc2cc(OC3CCOCC3)c3c(Nc4c(Cl)ccc5c4OCO5)ncnc3c2)CC1 [Saracatinib, reference compound] | – | – | – | – | – | – | – | – | – | – | – | 0.833 | concentrations showing cell count decreases (BV2 cells; BV2 cells, 48 hours treatment): > 1 µM; EC50 (BV2 cells; BV2 cells, 48 hours treatment, read-out: increased phagocytosis EC50): 0.266 µM; concentrations showing cytotoxicity (HMC3 cells; HMC3 cells, 48 hours treatment): > 10 µM; EC50 (HMC3 cells; HMC3 cells, 48 hours treatment): 0.182 µM; EC50 (HMC3 cells; [3]): < 0.2 µM |
